# Tested on: MRSA strain USA400
# Experiment: Efficacy of F12 in recurrent systemic MRSA infections
# Type: in vivo, DR4 HLA transgenic mice
# Conditions: for # Treated Mice Surviving: 500 μg enzyme 1 hour later
# Experimental: In a similar set of experiments, the immunogenicity and efficacy of variant F12 was compared to wild-type LST in the absence of adjuvant using DR4 HLA transgenic mice. At week 0, mice were challenged with an intraperitoneal injection of 2×10^8 MRSA strain USA400, and 1 hour later the mice were treated with 500 μg wild-type LST or 500 μg variant F12, given as a single bolus subcutaneous injection. Subsequently, mice were challenged weekly with an intraperitoneal injection of 1×10^9 MRSA strain USA400, and treated as above. Antibody titers were measured weekly beginning at week 2. […] Variant F12 rescued all mice from four recurrent, systemic, MRSA infections (Table 24). The substantially lower antibody titers elicited by variant F12 indicate that this variant is […] than wild-type LST.
substance,measurement,setting,value
Wild-Type: wild-type lysostaphin (SEQ ID NO:49) produced in P. pastoris; aglycosylated Ser126Pro backbone in the design studies [reference compound],recurrent systemic MRSA infections from which mice were rescued,"500 μg s.c., weekly challenges, no adjuvant",four
same,# Treated Mice Surviving,"Week 0, 2×10^8 MRSA USA400 i.p., no adjuvant",7
same,# Treated Mice Surviving,"Week 1, 1×10^9 MRSA USA400 i.p.",6
same,# Treated Mice Surviving,"Week 2, 1×10^9 MRSA USA400 i.p.",5
same,# Treated Mice Surviving,"Week 3, 1×10^9 MRSA USA400 i.p.",4
same,# Treated Mice Surviving,"Week 4, 1×10^9 MRSA USA400 i.p.",0
